# Measurements from the kinase profiling compilation of Christmann-Franck et al. (2016).
# Key:
# Experiment in all cases: KINOMEscan competition binding
# Conditions in all cases: compound 10.0 µM
# [1] = molecular target: FLT3 (human) (UniProt P36888)
# [2] = molecular target: RPS6KA4 KD2 (human) (UniProt O75676)
# [3] = molecular target: STK36 (human) (UniProt Q9NRP7)
# [4] = molecular target: PRKAA1 (human) (UniProt Q13131)
# [5] = molecular target: MARK1 (human) (UniProt Q9P0L2)
# [6] = molecular target: CHEK2 (human) (UniProt O96017)
# [7] = molecular target: FRK (human) (UniProt P42685)
# [8] = molecular target: CLK3 (human) (UniProt P49761)
# [9] = molecular target: FGFR1 (human) (UniProt P11362)
# [10] = molecular target: MAP3K6 (human) (UniProt O95382)
# [11] = molecular target: MAP3K5 (human) (UniProt Q99683)
# [12] = molecular target: RIPK2 (human) (UniProt O43353)
# [13] = molecular target: CDK11B (human) (UniProt P21127)
# Sequence of CDK11B (human) (P21127 whole entry, looked up): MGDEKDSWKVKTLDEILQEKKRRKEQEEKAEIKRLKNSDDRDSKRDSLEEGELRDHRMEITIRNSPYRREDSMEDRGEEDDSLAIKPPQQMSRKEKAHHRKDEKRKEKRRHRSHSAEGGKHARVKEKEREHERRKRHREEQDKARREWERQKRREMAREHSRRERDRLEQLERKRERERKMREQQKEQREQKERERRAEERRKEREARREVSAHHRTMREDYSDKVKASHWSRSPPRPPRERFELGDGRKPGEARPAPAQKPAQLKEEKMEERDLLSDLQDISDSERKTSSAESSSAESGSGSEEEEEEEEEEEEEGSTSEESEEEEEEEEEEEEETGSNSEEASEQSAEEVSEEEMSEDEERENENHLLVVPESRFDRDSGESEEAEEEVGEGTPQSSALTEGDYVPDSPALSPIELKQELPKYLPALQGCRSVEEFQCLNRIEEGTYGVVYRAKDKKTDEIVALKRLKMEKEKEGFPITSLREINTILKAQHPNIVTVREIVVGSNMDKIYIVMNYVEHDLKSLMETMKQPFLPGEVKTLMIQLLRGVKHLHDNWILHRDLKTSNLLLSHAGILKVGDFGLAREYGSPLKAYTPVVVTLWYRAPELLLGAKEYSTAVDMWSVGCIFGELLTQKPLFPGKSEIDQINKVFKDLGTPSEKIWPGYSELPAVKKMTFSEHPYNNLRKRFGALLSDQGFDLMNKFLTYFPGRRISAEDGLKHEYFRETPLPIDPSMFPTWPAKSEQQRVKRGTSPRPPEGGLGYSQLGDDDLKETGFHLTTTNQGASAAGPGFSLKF
# [14] = molecular target: CSNK1A1L (human) (UniProt Q8N752)
# [15] = molecular target: MARK4 (human) (UniProt Q96L34)
# [16] = molecular target: DMPK (human) (UniProt Q09013)
# Sequence of DMPK (human) (Q09013 whole entry, looked up): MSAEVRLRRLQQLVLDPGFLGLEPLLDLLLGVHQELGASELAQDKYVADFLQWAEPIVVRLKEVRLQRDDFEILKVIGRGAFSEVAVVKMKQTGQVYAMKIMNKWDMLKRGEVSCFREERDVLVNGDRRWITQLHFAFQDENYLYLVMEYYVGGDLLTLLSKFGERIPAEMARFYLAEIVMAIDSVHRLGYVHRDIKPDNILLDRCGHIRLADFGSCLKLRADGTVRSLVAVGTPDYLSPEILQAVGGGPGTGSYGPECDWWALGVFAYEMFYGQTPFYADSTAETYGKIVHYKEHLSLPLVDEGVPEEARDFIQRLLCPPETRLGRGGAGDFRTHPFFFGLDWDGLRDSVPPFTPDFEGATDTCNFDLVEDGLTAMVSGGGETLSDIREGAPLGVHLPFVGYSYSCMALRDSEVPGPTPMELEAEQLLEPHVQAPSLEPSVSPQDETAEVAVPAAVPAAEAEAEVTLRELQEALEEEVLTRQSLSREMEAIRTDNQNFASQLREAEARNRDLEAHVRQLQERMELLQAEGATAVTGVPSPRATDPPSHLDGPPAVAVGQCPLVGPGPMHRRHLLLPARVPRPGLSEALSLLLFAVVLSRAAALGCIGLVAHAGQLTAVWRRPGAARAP
# [17] = molecular target: IRAK4 (human) (UniProt Q9NWZ3)
# [18] = molecular target: RIOK3 (human) (UniProt O14730)
# [19] = molecular target: MYO3B (human) (UniProt Q8WXR4)
# [20] = molecular target: HIPK1 (human) (UniProt Q86Z02)
# [21] = molecular target: AKT1 (human) (UniProt P31749)
# [22] = molecular target: MET (human) (UniProt P08581)
# [23] = molecular target: TTK (human) (UniProt P33981)
# [24] = molecular target: PIM2 (human) (UniProt Q9P1W9)
# Sequence of PIM2 (human) (Q9P1W9 whole entry, looked up): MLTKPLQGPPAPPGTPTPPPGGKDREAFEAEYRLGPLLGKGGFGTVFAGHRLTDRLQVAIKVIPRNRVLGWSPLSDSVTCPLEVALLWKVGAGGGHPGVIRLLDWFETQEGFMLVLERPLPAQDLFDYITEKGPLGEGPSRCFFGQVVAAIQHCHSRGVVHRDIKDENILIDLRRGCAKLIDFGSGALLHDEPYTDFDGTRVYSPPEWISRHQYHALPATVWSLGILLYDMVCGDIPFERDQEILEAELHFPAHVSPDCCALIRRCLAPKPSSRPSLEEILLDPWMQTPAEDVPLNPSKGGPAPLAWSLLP
# [25] = molecular target: PAK3 (human) (UniProt O75914)
# Sequence of PAK3 (human) (O75914 whole entry, looked up): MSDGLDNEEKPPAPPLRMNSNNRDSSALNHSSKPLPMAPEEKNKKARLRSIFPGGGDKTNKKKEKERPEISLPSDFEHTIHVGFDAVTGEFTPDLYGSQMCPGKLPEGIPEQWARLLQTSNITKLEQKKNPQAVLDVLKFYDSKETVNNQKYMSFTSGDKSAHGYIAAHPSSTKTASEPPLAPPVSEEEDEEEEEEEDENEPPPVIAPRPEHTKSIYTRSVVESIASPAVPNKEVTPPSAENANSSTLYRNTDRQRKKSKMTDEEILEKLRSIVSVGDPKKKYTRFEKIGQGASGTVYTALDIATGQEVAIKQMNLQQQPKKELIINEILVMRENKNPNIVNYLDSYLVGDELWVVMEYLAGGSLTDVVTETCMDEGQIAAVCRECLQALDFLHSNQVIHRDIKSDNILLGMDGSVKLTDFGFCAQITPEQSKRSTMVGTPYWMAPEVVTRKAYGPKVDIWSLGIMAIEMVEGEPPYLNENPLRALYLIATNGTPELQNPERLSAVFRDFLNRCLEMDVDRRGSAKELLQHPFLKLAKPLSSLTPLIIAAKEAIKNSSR
# [26] = molecular target: AAK1 (human) (UniProt Q2M2I8)
# [27] = molecular target: PRKACA (human) (UniProt P17612)
# [28] = molecular target: PKN2 (human) (UniProt Q16513)
# [29] = molecular target: CHEK1 (human) (UniProt O14757)
# [30] = molecular target: CDC42BPA (human) (UniProt Q5VT25)
# Sequence of CDC42BPA (human) (Q5VT25 whole entry, looked up): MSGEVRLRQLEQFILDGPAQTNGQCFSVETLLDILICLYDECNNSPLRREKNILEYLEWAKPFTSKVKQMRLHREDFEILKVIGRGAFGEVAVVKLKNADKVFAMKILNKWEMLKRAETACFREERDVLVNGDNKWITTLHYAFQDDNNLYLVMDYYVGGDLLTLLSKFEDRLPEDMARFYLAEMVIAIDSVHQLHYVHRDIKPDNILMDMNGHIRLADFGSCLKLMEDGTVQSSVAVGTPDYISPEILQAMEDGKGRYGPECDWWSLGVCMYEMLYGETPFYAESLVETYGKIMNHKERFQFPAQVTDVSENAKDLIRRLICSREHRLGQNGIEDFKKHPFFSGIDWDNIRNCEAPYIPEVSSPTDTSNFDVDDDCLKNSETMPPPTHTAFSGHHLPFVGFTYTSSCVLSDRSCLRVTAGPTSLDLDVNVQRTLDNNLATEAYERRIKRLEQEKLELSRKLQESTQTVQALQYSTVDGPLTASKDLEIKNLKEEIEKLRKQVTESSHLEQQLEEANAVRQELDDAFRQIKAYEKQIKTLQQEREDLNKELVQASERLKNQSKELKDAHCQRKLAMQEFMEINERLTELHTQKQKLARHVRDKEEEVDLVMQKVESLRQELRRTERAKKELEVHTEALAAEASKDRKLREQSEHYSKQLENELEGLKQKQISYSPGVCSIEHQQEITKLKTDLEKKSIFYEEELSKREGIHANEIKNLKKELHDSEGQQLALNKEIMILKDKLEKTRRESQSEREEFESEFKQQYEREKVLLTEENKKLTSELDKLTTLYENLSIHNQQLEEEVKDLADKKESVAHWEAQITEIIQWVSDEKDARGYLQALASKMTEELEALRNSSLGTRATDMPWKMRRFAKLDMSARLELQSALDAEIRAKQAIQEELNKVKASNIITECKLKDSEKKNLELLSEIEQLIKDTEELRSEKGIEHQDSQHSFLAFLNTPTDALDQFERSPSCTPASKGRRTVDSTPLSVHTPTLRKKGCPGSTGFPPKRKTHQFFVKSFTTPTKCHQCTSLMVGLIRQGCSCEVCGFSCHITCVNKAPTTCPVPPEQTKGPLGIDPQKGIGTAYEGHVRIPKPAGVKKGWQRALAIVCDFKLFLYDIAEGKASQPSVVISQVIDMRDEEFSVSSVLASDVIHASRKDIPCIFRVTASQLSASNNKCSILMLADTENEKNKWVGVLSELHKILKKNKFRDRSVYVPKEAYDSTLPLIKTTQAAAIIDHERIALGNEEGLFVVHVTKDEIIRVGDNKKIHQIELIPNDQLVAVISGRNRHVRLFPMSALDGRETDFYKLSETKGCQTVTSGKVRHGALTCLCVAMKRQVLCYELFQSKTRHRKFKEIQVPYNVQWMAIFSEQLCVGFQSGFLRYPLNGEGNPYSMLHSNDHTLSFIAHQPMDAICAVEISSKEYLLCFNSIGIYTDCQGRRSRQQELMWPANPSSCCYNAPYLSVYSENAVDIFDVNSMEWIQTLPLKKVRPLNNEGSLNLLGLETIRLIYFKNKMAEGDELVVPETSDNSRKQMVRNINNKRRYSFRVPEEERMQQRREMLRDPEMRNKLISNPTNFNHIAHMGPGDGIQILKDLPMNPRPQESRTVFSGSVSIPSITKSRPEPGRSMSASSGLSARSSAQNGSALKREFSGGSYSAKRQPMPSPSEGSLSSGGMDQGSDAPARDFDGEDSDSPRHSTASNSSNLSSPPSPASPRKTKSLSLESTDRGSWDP
# [31] = molecular target: ERBB4 (human) (UniProt Q15303)
# [32] = molecular target: EPHB1 (human) (UniProt P54762)
# [33] = molecular target: TAOK1 (human) (UniProt Q7L7X3)
# [34] = molecular target: ACVR1B (human) (UniProt P36896)
# [35] = molecular target: TESK1 (human) (UniProt Q15569)
# [36] = molecular target: CDK16 (human) (UniProt Q00536)
# [37] = molecular target: EPHA8 (human) (UniProt P29322)
# Sequence of EPHA8 (human) (P29322 whole entry, looked up): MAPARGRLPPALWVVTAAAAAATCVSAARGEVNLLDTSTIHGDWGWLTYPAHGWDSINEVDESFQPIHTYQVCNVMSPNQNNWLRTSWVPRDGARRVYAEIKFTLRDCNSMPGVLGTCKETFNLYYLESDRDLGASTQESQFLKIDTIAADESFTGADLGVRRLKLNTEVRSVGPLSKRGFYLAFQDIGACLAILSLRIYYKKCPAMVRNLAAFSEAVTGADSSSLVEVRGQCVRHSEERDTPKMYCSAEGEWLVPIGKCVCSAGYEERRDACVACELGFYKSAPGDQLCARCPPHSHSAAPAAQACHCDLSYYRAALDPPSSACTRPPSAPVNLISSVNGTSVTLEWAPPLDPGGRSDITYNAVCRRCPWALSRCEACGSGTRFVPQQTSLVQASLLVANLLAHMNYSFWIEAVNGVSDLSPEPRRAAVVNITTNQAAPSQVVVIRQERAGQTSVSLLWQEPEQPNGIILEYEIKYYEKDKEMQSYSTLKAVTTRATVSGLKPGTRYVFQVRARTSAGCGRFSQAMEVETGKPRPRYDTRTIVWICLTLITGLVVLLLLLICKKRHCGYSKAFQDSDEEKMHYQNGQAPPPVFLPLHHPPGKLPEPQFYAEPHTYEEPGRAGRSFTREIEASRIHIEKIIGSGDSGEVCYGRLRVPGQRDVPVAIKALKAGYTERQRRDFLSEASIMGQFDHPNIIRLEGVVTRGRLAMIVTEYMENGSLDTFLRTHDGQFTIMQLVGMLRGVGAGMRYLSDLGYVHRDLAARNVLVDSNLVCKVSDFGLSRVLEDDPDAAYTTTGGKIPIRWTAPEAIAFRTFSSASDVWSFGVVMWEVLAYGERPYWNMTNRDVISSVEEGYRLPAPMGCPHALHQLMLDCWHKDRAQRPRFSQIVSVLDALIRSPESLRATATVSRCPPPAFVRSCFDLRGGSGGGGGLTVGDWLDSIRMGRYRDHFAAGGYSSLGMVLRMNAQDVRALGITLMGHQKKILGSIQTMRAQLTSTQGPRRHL
# [38] = molecular target: STK10 (human) (UniProt O94804)
# [39] = molecular target: MAPK13 (human) (UniProt O15264)
# [40] = tested on: EGFR (human), P00533 [G719C]
SMILES,"kinase still bound, per cent of control [1]","kinase still bound, per cent of control [2]","kinase still bound, per cent of control [3]","kinase still bound, per cent of control [4]","kinase still bound, per cent of control [5]","kinase still bound, per cent of control [8]","kinase still bound, per cent of control [9]","kinase still bound, per cent of control [13]","kinase still bound, per cent of control [14]","kinase still bound, per cent of control [15]","kinase still bound, per cent of control [16]","kinase still bound, per cent of control [18]","kinase still bound, per cent of control [19]","kinase still bound, per cent of control [20]","kinase still bound, per cent of control [21]","kinase still bound, per cent of control [22]","kinase still bound, per cent of control [23]","kinase still bound, per cent of control [24]","kinase still bound, per cent of control [25]","kinase still bound, per cent of control [27]",further results
CCc1nc(-c2cccc(C)c2)c(-c2ccnc(NC(=O)c3ccccc3)c2)s1,17%,100%,4.8%,81%,100%,78%,72%,88%,1.3%,100%,92%,100%,48%,94%,100%,94%,70%,82%,82%,85%,"kinase still bound, per cent of control [6]: 80%; kinase still bound, per cent of control [7]: 36%; kinase still bound, per cent of control [10]: 100%; kinase still bound, per cent of control [11]: 100%; kinase still bound, per cent of control [12]: 1.2%; kinase still bound, per cent of control [17]: 100%; kinase still bound, per cent of control [26]: 96%; kinase still bound, per cent of control [28]: 76%; kinase still bound, per cent of control [29]: 77%; kinase still bound, per cent of control [30]: 82%; kinase still bound, per cent of control [31]: 2.8%; kinase still bound, per cent of control [32]: 83%; kinase still bound, per cent of control [33]: 72%; kinase still bound, per cent of control [34]: 4.6%; kinase still bound, per cent of control [35]: 81%; kinase still bound, per cent of control [36]: 100%; kinase still bound, per cent of control [37]: 89%; kinase still bound, per cent of control [38]: 59%"
CCN(CCO)CCCOc1ccc2c(Nc3cc(CC(=O)Nc4cccc(F)c4)[nH]n3)ncnc2c1,0.4%,79%,37%,64%,98%,100%,85%,6.5%,99%,100%,93%,100%,100%,40%,96%,46%,49%,100%,57%,100%,"kinase still bound, per cent of control [6]: 100%; kinase still bound, per cent of control [7]: 90%; kinase still bound, per cent of control [11]: 100%; kinase still bound, per cent of control [12]: 17%; kinase still bound, per cent of control [17]: 76%; kinase still bound, per cent of control [28]: 86%; kinase still bound, per cent of control [30]: 100%; kinase still bound, per cent of control [31]: 4%; kinase still bound, per cent of control [32]: 98%; kinase still bound, per cent of control [33]: 59%; kinase still bound, per cent of control [34]: 88%; kinase still bound, per cent of control [35]: 100%; kinase still bound, per cent of control [37]: 90%; kinase still bound, per cent of control [38]: 11%"
CCOc1cc(N2CCC(O)CC2)ccc1Nc1ncc2c(n1)N(C)c1ccccc1C(=O)N2C,100%,100%,100%,100%,100%,100%,100%,100%,100%,100%,100%,100%,100%,100%,100%,100%,19%,100%,100%,100%,"kinase still bound, per cent of control [6]: 100%; kinase still bound, per cent of control [7]: 100%; kinase still bound, per cent of control [10]: 100%; kinase still bound, per cent of control [11]: 100%; kinase still bound, per cent of control [12]: 100%; kinase still bound, per cent of control [39]: 100%; kinase still bound, per cent of control [26]: 100%; kinase still bound, per cent of control [28]: 100%; kinase still bound, per cent of control [29]: 100%; kinase still bound, per cent of control [30]: 100%; kinase still bound, per cent of control [31]: 100%; kinase still bound, per cent of control [32]: 100%; kinase still bound, per cent of control [33]: 100%; kinase still bound, per cent of control [34]: 100%; kinase still bound, per cent of control [35]: 100%; kinase still bound, per cent of control [40]: 100%; kinase still bound, per cent of control [36]: 100%; kinase still bound, per cent of control [37]: 100%; kinase still bound, per cent of control [38]: 100%"
CC(=O)c1c(C)c2cnc(Nc3ccc(N4CCNCC4)cn3)nc2n(C2CCCC2)c1=O,35%,3.2%,78%,22%,35%,55%,66%,93%,62%,63%,80%,64%,100%,0.1%,92%,36%,26%,52%,20%,100%,"kinase still bound, per cent of control [10]: 69%; kinase still bound, per cent of control [17]: 39%; kinase still bound, per cent of control [26]: 11%; kinase still bound, per cent of control [28]: 48%; kinase still bound, per cent of control [29]: 20%; kinase still bound, per cent of control [30]: 98%; kinase still bound, per cent of control [31]: 83%; kinase still bound, per cent of control [33]: 11%; kinase still bound, per cent of control [34]: 96%; kinase still bound, per cent of control [35]: 99%; kinase still bound, per cent of control [36]: 0.2%; kinase still bound, per cent of control [37]: 93%; kinase still bound, per cent of control [38]: 23%"
